Assays:
Test in all cases: KinaseProfiler panel
Assay type in all cases: biochemical
Design in all cases: dose or concentration left out as unconfirmed
Conditions in all cases: activity remaining
PAK4(h) = PAK4(h) (Homo sapiens (Human), UniProt O96013)
CDK1/cyclinB(h) = CDK1/cyclinB(h) (Homo sapiens (Human), UniProt P06493)
TTK(h) = TTK(h) (Homo sapiens (Human), UniProt P33981)
MAP4K4(h) = MAP4K4(h) (Homo sapiens (Human), UniProt O95819)
MLCK(h) = MLCK(h) (Homo sapiens (Human), UniProt Q15746)
MEK2(h) = MEK2(h) (Homo sapiens (Human), UniProt P36507)
Flt3(h) = Flt3(h) (Homo sapiens (Human), UniProt P36888)
BIKE(h) = BIKE(h) (Homo sapiens (Human), UniProt Q9NSY1)
PDGFRβ(h) = PDGFRβ(h) (Homo sapiens (Human), UniProt P09619)
OSR1(h) = OSR1(h) (Homo sapiens (Human), UniProt O95747)
Chain of OSR1(h) (O95747 whole entry): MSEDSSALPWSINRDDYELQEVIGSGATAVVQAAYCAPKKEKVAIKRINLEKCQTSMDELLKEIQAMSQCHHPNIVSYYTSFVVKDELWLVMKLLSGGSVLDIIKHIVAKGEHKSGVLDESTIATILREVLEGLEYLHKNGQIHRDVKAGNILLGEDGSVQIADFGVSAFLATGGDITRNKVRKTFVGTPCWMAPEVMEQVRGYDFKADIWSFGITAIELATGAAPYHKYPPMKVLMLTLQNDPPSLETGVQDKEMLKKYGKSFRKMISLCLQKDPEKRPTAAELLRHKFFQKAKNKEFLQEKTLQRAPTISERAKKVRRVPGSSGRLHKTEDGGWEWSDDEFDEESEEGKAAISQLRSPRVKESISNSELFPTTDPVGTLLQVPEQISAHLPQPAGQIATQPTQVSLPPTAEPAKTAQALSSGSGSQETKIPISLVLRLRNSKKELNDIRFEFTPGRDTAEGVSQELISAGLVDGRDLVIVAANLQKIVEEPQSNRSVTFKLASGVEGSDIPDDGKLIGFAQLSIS

CRIK(h) = CRIK(h) (Homo sapiens (Human), UniProt O14578)
Chain of CRIK(h) (O14578 whole entry): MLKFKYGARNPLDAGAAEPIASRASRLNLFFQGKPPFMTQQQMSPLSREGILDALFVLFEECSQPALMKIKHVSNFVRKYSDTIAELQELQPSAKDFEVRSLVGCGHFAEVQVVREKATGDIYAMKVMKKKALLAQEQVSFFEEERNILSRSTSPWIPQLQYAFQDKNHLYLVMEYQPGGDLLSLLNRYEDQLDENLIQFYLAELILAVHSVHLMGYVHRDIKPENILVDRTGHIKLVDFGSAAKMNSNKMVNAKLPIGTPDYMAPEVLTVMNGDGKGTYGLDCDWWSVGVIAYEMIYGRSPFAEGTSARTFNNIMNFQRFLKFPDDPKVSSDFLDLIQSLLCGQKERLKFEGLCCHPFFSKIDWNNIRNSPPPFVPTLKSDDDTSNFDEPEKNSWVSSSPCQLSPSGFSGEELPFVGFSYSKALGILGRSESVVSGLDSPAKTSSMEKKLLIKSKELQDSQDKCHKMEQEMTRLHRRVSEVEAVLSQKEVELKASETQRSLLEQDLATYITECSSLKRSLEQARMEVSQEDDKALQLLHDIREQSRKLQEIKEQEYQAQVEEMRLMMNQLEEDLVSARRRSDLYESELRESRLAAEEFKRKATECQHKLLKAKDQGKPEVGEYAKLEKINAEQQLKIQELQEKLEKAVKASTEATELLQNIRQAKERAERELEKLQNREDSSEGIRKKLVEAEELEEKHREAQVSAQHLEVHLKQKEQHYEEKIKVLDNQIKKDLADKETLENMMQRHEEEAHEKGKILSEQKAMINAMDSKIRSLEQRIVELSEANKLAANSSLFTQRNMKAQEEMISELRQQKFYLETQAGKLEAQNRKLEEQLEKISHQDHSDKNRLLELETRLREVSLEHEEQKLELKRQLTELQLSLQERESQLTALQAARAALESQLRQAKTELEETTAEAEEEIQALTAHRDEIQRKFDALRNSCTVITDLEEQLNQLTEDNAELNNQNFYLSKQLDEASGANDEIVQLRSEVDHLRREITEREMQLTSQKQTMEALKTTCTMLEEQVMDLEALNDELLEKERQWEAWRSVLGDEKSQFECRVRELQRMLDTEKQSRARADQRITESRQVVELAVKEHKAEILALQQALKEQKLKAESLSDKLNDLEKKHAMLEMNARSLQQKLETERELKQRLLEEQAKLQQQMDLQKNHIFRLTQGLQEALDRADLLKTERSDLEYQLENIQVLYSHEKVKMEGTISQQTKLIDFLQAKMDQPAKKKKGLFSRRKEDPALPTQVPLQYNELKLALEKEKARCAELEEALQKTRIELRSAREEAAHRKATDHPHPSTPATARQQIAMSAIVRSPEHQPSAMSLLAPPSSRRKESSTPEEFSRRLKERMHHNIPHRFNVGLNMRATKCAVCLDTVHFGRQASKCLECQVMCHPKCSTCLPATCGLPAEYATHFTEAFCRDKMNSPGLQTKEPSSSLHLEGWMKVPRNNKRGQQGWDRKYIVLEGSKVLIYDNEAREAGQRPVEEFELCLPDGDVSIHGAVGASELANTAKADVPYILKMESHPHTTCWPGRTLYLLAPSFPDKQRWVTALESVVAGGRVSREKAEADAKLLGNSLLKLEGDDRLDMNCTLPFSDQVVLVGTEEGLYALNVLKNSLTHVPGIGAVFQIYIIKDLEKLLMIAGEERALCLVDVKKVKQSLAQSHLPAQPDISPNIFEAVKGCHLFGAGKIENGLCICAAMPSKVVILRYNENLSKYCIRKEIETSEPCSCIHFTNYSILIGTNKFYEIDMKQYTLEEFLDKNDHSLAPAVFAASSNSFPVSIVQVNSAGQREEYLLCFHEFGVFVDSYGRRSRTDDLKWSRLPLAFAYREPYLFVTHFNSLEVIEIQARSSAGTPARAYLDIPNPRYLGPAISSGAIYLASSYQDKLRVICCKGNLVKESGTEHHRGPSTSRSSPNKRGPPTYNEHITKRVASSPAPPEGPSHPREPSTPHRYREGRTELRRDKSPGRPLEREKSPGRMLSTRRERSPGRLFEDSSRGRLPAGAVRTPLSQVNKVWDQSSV

MAPKAP-K2(h) = MAPKAP-K2(h) (Homo sapiens (Human), UniProt P49137)
ALK6(h) = ALK6(h) (Homo sapiens (Human), UniProt O00238)
Chain of ALK6(h) (O00238 14-502): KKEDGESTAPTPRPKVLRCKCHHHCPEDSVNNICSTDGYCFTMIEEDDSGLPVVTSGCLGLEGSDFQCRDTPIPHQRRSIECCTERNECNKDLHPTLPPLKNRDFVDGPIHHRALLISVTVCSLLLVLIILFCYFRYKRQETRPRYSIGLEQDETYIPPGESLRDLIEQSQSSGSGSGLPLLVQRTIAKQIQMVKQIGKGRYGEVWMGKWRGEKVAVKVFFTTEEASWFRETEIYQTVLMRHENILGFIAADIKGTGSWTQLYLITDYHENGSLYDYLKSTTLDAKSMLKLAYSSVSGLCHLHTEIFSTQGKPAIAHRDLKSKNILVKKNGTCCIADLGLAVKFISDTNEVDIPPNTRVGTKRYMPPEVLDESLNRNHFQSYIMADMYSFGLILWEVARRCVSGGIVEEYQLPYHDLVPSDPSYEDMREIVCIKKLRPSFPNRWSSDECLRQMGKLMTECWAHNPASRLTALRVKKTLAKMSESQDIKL

MYO3B(h) = MYO3B(h) (Homo sapiens (Human), UniProt Q8WXR4)
MST2(h) = MST2(h) (Homo sapiens (Human), UniProt Q13188)
Chain of MST2(h) (Q13188 whole entry): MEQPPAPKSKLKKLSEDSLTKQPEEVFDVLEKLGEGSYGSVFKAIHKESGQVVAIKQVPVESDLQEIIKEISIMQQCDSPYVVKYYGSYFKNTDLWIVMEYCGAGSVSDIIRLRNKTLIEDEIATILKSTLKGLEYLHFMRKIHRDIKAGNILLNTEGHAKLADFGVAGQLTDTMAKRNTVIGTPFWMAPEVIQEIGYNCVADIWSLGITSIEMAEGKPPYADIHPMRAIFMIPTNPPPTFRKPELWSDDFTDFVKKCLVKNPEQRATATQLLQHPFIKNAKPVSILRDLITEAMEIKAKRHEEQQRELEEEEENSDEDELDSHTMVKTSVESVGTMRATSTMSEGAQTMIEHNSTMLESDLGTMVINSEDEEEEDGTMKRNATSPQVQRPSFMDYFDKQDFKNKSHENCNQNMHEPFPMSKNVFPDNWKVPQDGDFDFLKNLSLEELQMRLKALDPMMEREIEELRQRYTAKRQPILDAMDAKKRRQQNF

CDK5/p35(h) = CDK5/p35(h) (Homo sapiens (Human), UniProt Q00535)
c-RAF(h) = c-RAF(h) (Homo sapiens (Human), UniProt P04049)
CSK(h) = CSK(h) (Homo sapiens (Human), UniProt P41240)
PKBα(h) = PKBα(h) (Homo sapiens (Human), UniProt P31749)
Ret(h) = Ret(h) (Homo sapiens (Human), UniProt P07949)
Abl(h) = Abl(h) (Homo sapiens (Human), UniProt P00519)
PhKγ1(h) = PhKγ1(h) (Homo sapiens (Human), UniProt Q16816)
PIP5K1a(h) = PIP5K1a(h) (Homo sapiens (Human), UniProt Q99755)
Chain of PIP5K1a(h) (Q99755 whole entry): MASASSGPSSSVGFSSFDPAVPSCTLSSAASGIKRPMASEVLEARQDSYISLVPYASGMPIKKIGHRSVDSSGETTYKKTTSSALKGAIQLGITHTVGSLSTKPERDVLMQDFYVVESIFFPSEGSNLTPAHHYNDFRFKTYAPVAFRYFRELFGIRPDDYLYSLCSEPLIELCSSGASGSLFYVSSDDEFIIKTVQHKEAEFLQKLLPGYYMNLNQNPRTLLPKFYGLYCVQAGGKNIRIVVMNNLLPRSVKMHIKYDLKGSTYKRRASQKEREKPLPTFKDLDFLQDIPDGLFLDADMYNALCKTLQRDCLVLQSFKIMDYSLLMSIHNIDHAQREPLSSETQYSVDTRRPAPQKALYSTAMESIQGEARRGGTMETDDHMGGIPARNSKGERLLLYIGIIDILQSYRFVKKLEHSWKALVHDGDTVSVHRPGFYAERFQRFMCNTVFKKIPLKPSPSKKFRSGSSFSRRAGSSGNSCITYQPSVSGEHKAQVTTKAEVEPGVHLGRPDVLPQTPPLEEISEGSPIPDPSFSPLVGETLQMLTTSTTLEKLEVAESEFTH

HRI(h) = HRI(h) (Homo sapiens (Human), UniProt Q9BQI3)
eEF-2K(h) = eEF-2K(h) (Homo sapiens (Human), UniProt O00418)
Aurora-B(h) = Aurora-B(h) (Homo sapiens (Human), UniProt Q96GD4)
Chain of Aurora-B(h) (Q96GD4 whole entry): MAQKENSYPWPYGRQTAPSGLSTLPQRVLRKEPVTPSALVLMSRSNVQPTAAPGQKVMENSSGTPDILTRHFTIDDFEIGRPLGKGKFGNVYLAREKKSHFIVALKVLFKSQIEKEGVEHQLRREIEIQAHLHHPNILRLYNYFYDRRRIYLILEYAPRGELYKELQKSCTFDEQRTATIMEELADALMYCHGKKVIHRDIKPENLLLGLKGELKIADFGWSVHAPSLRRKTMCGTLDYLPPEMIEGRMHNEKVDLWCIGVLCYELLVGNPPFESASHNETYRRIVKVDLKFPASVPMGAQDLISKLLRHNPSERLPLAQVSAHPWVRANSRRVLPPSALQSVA

STK25(h) = STK25(h) (Homo sapiens (Human), UniProt O00506)
PKR(h) = PKR(h) (Homo sapiens (Human), UniProt P19525)
DYRK3(h) = DYRK3(h) (Homo sapiens (Human), UniProt O43781)
CLK2(h) = CLK2(h) (Homo sapiens (Human), UniProt P49760)

Chain of PAK4(h) (O96013 whole entry): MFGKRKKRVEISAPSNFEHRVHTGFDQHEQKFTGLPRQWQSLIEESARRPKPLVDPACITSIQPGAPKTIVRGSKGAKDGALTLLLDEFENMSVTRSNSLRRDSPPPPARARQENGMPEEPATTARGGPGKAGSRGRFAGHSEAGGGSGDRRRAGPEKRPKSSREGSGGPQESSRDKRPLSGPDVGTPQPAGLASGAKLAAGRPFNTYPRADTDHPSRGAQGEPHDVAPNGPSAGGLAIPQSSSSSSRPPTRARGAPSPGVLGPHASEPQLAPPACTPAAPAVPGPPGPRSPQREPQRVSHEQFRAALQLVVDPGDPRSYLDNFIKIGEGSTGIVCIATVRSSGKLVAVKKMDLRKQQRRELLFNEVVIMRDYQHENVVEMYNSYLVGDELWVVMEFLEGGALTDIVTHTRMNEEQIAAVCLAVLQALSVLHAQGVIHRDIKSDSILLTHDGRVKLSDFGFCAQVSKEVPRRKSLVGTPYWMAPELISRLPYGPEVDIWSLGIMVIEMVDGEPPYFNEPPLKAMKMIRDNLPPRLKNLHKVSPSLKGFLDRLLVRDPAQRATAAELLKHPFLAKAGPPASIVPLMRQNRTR

Structure (SMILES): Cc1cc2c(-c3ccc(NC(=O)[C@H](N)CC(C)(C)C)cc3C)ccnc2[nH]1 [Compound F-90, (2R)-2-Amino-4,4-dimethyl-N-[3-methyl-4-(2-methyl-1H-pyrrolo[2,3-b]pyridin-4-yl)phenyl]pentanamide]
- % Activity (PAK4(h)): 83%
- % Activity (CDK1/cyclinB(h)): 94%
- % Activity (TTK(h)): 102%
- % Activity (MAP4K4(h)): 101%
- % Activity (MLCK(h)): 98%
- % Activity (MEK2(h)): 92%
- % Activity (Flt3(h)): 84%
- % Activity (BIKE(h)): 50%
- % Activity (PDGFRβ(h)): 105%
- % Activity (OSR1(h)): 80%
- % Activity (CRIK(h)): 0%
- % Activity (MAPKAP-K2(h)): 72%
- % Activity (ALK6(h)): 74%
- % Activity (MYO3B(h)): 79%
- % Activity (MST2(h)): 106%
- % Activity (CDK5/p35(h)): 79%
- % Activity (c-RAF(h)): 106%
- % Activity (CSK(h)): 92%
- % Activity (PKBα(h)): 87%
- % Activity (Ret(h)): 97%
- % Activity (Abl(h)): 99%
- % Activity (PhKγ1(h)): 101%
- % Activity (PIP5K1a(h)): 103%
- % Activity (HRI(h)): 80%
- % Activity (eEF-2K(h)): 92%
- % Activity (Aurora-B(h)): 109%
- % Activity (STK25(h)): 92%
- % Activity (PKR(h)): 85%
- % Activity (DYRK3(h)): 99%
- % Activity (CLK2(h)): 106%
